From patent US5491155A, “Substituted thiadiazoles, compositions containing them and their use as antimicrobial and marine antifouling agents” (The Dow Chemical Company, priority 1994, dated 1996)
Converted amounts (≈) assume the structure as drawn. Like-named read-outs stand apart in the source and are kept apart here.

Assays:
[1] = test system: Staphylococcus aureus; assay: MIC in nutrient agar, Staphylococcus aureus; type: cell-based, Staphylococcus aureus (ATCC 6538)
Experimental: (§1) The minimum inhibitory concentration (MIC) for the compounds listed in Table I is determined for bacteria, using nutrient agar, and 7 yeast and fungi, using malt yeast agar. A one percent solution of the test compound is prepared in a mixture of acetone and water.
(§2) Nutrient agar is prepared at pH 6.8, representing a neutral medium, and at pH 8.2, representing an alkaline medium. The nutrient agars are prepared by adding 23 g of nutrient agar to one-liter of deionized water. In addition, the alkaline medium is prepared by adjusting a 0.04M solution of N-(tris-(hydroxymethyl)methyl)glycine buffered deionized water with concentrated sodium hydroxide to a pH of 8.5.
(§3) The test tubes containing the agar are cooled in a water bath until the temperature of the agar is 48° C. Then, an appropriate amount of the one percent solution of the test compound is added (except in the controls where no compound is added) to the respective test tubes so that the final concentrations are 500, 250, 100, 50, 25, 10, 2.5, 1.0 and zero parts per million of the test compound in the agar, thus having a known concentration of test compound dispersed therein. The contents of the test tubes are then transferred to respective petri plates. After drying for 24 hours, the petri plates containing nutrient agar are inoculated with bacteria and those containing malt yeast agar are inoculated with yeast and fungi.
(§4) The inoculation with bacteria is accomplished by using the following procedure. Twenty-four hour-cultures of each of the bacteria are prepared by incubating the respective bacteria in tubes containing nutrient broth for 24 hours at 30° C. in a shaker. Dilutions of each of the 24 hour-cultures are made so that nine separate suspensions (one for each of the nine test bacteria) are made, each containing 10^8 colony forming units (CFU) per mL of suspension of a particular bacteria. Aliquots of 0.3 mL of each of the bacterial suspensions are used to fill the individual wells of Steer's Replicator. For each microbial suspension, 0.3 mL was used to fill three wells (i.e., three wells of 0.3 mL each) so that for the nine different bacteria, 27 wells are filled. The Steer's Replicator is then used to inoculate both the neutral and alkaline pH nutrient agar petri plates.
(§5) The inoculated petri plates are incubated at 30° C. for 48 hours and then read to determine if the test compound which is incorporated into the agar prevented growth of the respective bacteria.
(§6) Table II lists the bacteria, yeast and fungi used in the MIC test described above along with their respective American Type Culture Collection (ATCC) identification numbers.
(§7) In Tables III and IV, the MIC values of the compounds described in Table I as compared to the MIC of a standard commercial preservative (with 1-(3-chloroalkyl)-3,5,7-triaza-1-azoniaadamantane chloride as the active agent and referred to in Tables III and IV as "STANDARD I") are set forth for the bacteria organisms and yeast/fungi organisms which are listed in Table II.

[2] = test system: Pseudomonas aeruginosa (PRD-10); assay: MIC in nutrient agar, Pseudomonas aeruginosa (PRD-10); type: cell-based, Pseudomonas aeruginosa (ATCC 15442)
Experimental: as §1, §2, §3, §4, §5, §6, §7

[3] = test system: Proteus vulgaris; assay: MIC in nutrient agar, Proteus vulgaris; type: cell-based, Proteus vulgaris (ATCC 881)
Experimental: as §1, §2, §3, §4, §5, §6, §7

[4] = test system: Aureobasidium pullulan; assay: MIC in malt yeast agar, Aureobasidium pullulan; type: cell-based, Aureobasidium pullulan (ATCC 16622); settings: read-out: Minimum Inhibitory Concentration (MIC)
Experimental: as §1
(§8) Malt yeast agar is prepared by adding 3 g yeast extract and 45 g malt agar per liter of deionized water. The specific agar is dispensed in 30 mL aliquots into 25×200 mm test tubes, capped and autoclaved for 15 minutes at 115° C.
as §3
(§9) The inoculation with the yeast and fungi is accomplished as follows. Cultures of yeast and fungi are incubated for seven days on malt yeast agar at 30° C. These cultures are used to prepare suspensions by the following procedure. A suspension of each organism is prepared by adding 10 mL of sterile saline and 10 microliters of octylphenoxy polyethoxy ethanol to the agar slant of yeast or fungi. The sterile saline/octylphenoxy polyethoxy ethanol solution is then agitated with a sterile swab to suspend the microorganism grown on the slant. Each resulting suspension is diluted into sterile saline (1 part suspension: 9 parts sterile saline). Aliquots of these dilutions are placed in individual wells of Steer's Replicator and petri plates inoculated as previously described. The petri plates are incubated at 30° C. and read after 48 hours for yeast and 72 hours for fungi.
as §6, §7

[5] = test system: Bacillus subtilis; assay: MIC in nutrient agar, Bacillus subtilis; type: cell-based, Bacillus subtilis (ATCC 8473)
Experimental: as §1, §2, §3, §4, §5, §6, §7

[6] = test system: Trichoderma viride; assay: MIC in malt yeast agar, Trichoderma viride; type: cell-based, Trichoderma viride (ATCC 8678); settings: read-out: Minimum Inhibitory Concentration (MIC)
Experimental: as §1, §8, §3, §9, §6, §7

[7] = test system: Penicillium chrysogenum; assay: MIC in malt yeast agar, Penicillium chrysogenum; type: cell-based, Penicillium chrysogenum (ATCC 9480); settings: read-out: Minimum Inhibitory Concentration (MIC)
Experimental: as §1, §8, §3, §9, §6, §7

[8] = test system: Saccharomyces cerevisiae; assay: MIC in malt yeast agar, Saccharomyces cerevisiae; type: cell-based, Saccharomyces cerevisiae (ATCC 4105); settings: read-out: Minimum Inhibitory Concentration (MIC)
Experimental: as §1, §8, §3, §9, §6, §7

[9] = test system: Pseudomonas aeruginosa; assay: MIC in nutrient agar, Pseudomonas aeruginosa (Pa); type: cell-based, Pseudomonas aeruginosa (ATCC 10145)
Experimental: as §1, §2, §3, §4, §5, §6, §7

[10] = test system: Salmonella choleraesuis; assay: MIC in nutrient agar, Salmonella choleraesuis; type: cell-based, Salmonella choleraesuis (ATCC 10708); settings: Salmonella enterica
Experimental: as §1, §2, §3, §4, §5, §6, §7

[11] = test system: Candida albicans; assay: MIC in malt yeast agar, Candida albicans; type: cell-based, Candida albicans (ATCC 10231); settings: read-out: Minimum Inhibitory Concentration (MIC)
Experimental: as §1, §8, §3, §9, §6, §7

[12] = test system: Enterobacter aerogenes; assay: MIC in nutrient agar, Enterobacter aerogenes; type: cell-based, Enterobacter aerogenes (ATCC 13048); settings: Klebsiella aerogenes
Experimental: as §1, §2, §3, §4, §5, §6, §7

[13] = test system: Fusarium oxysporum; assay: MIC in malt yeast agar, Fusarium oxysporum; type: cell-based, Fusarium oxysporum (ATCC 48112); settings: read-out: Minimum Inhibitory Concentration (MIC)
Experimental: as §1, §8, §3, §9, §6, §7

[14] = test system: Escherichia coli; assay: MIC in nutrient agar, Escherichia coli; type: cell-based, Escherichia coli (ATCC 11229)
Experimental: as §1, §2, §3, §4, §5, §6, §7

[15] = test system: Aspergillus niger; assay: MIC in malt yeast agar, Aspergillus niger; type: cell-based, Aspergillus niger (ATCC 16404); settings: read-out: Minimum Inhibitory Concentration (MIC)
Experimental: as §1, §8, §3, §9, §6, §7

[16] = test system: Klebsiella pneumonias; assay: MIC in nutrient agar, Klebsiella pneumonias; type: cell-based, Klebsiella pneumonias (ATCC 8308)
Experimental: as §1, §2, §3, §4, §5, §6, §7

[17] = 48 h, pH 6.8, read-out: Minimum Inhibitory Concentration (MIC)
[18] = 48 h, pH 8.2, read-out: Minimum Inhibitory Concentration (MIC)
[19] = Sa, pH 6.8, 30° C., 48 hours, read-out: Minimum Inhibitory Concentration (MIC)
[20] = Sa, pH 8.2, 30° C., 48 hours, read-out: Minimum Inhibitory Concentration (MIC)
[21] = PRD, pH 6.8, 30° C., 48 hours, read-out: Minimum Inhibitory Concentration (MIC)
[22] = PRD, pH 8.2, 30° C., 48 hours, read-out: Minimum Inhibitory Concentration (MIC)
[23] = Pv, pH 6.8, 30° C., 48 hours, read-out: Minimum Inhibitory Concentration (MIC)
[24] = Pv, pH 8.2, 30° C., 48 hours, read-out: Minimum Inhibitory Concentration (MIC)
[25] = Ap, malt yeast agar, 30° C., 72 hours for fungi
[26] = Bs, pH 6.8, 30° C., 48 hours, read-out: Minimum Inhibitory Concentration (MIC)
[27] = Bs, pH 8.2, 30° C., 48 hours, read-out: Minimum Inhibitory Concentration (MIC)
[28] = Tv, malt yeast agar, 30° C., 72 hours for fungi
[29] = Pc, malt yeast agar, 30° C., 72 hours for fungi
[30] = Sc, malt yeast agar, 30° C., 48 hours for yeast
[31] = Pa, pH 6.8, 30° C., 48 hours, read-out: Minimum Inhibitory Concentration (MIC)
[32] = Pa, pH 8.2, 30° C., 48 hours, read-out: Minimum Inhibitory Concentration (MIC)
[33] = Sc, pH 6.8, 30° C., 48 hours, read-out: Minimum Inhibitory Concentration (MIC)
[34] = Sc, pH 8.2, 30° C., 48 hours, read-out: Minimum Inhibitory Concentration (MIC)
[35] = Ca, malt yeast agar, 30° C., 48 hours for yeast
[36] = Ea, pH 6.8, 30° C., 48 hours, read-out: Minimum Inhibitory Concentration (MIC)
[37] = Ea, pH 8.2, 30° C., 48 hours, read-out: Minimum Inhibitory Concentration (MIC)
[38] = Fo, malt yeast agar, 30° C., 72 hours for fungi
[39] = Ec, pH 6.8, 30° C., 48 hours, read-out: Minimum Inhibitory Concentration (MIC)
[40] = Ec, pH 8.2, 30° C., 48 hours, read-out: Minimum Inhibitory Concentration (MIC)
[41] = An, malt yeast agar, 30° C., 72 hours for fungi
[42] = Kp, pH 6.8, 30° C., 48 hours, read-out: Minimum Inhibitory Concentration (MIC)
[43] = Kp, pH 8.2, 30° C., 48 hours, read-out: Minimum Inhibitory Concentration (MIC)

N#CSc1nsnc1Cl [Example 1, 4-Chloro-3-thiocyanato-1,2,5-thiadiazole]
MIC [1, 17]: 25 µg/mL (≈ 141 µM) | MIC [1, 18]: > 500 µg/mL | MIC [2, 17]: 50 µg/mL (≈ 281 µM) | MIC [2, 18]: > 500 µg/mL | MIC [3, 17]: 25 µg/mL (≈ 141 µM) | MIC [3, 18]: > 500 µg/mL | MIC ([4]; 72 h): < 10 µg/mL | MIC [5, 17]: 25 µg/mL (≈ 141 µM) | MIC [5, 18]: 500 µg/mL (≈ 2810 µM) | MIC ([6]; 72 h): < 10 µg/mL | MIC ([7]; 72 h): < 10 µg/mL | MIC ([8]; 48 h): < 10 µg/mL | MIC [9, 17]: 25 µg/mL (≈ 141 µM) | MIC [9, 18]: > 500 µg/mL | MIC [10, 17]: 25 µg/mL (≈ 141 µM) | MIC [10, 18]: > 500 µg/mL | MIC ([11]; 48 h): < 10 µg/mL | MIC [12, 17]: 50 µg/mL (≈ 281 µM) | MIC [12, 18]: > 500 µg/mL | MIC ([13]; 72 h): < 10 µg/mL | MIC [14, 17]: 25 µg/mL (≈ 141 µM) | MIC [14, 18]: > 500 µg/mL | MIC ([15]; 72 h): < 10 µg/mL | MIC [16, 17]: 25 µg/mL (≈ 141 µM) | MIC [16, 18]: > 500 µg/mL

N#CSCSc1nsnc1Cl [Example 3, 4-chloro-3-thiomethylthiocyanato-1,2,5,-thiadiazole]
MIC [1, 19]: 25 µg/mL (≈ 112 µM) | MIC [1, 20]: 50 µg/mL (≈ 223 µM) | MIC [2, 21]: < 10 µg/mL | MIC [2, 22]: 25 µg/mL (≈ 112 µM) | MIC [3, 23]: < 10 µg/mL | MIC [3, 24]: 25 µg/mL (≈ 112 µM) | MIC [4, 25]: < 10 µg/mL | MIC [5, 26]: < 10 µg/mL | MIC [5, 27]: 25 µg/mL (≈ 112 µM) | MIC [6, 28]: < 10 µg/mL | MIC [7, 29]: < 10 µg/mL | MIC [8, 30]: < 10 µg/mL | MIC [9, 31]: 25 µg/mL (≈ 112 µM) | MIC [9, 32]: 100 µg/mL (≈ 447 µM) | MIC [10, 33]: 25 µg/mL (≈ 112 µM) | MIC [10, 34]: 50 µg/mL (≈ 223 µM) | MIC [11, 35]: < 10 µg/mL | MIC [12, 36]: 25 µg/mL (≈ 112 µM) | MIC [12, 37]: 100 µg/mL (≈ 447 µM) | MIC [13, 38]: < 10 µg/mL | MIC [14, 39]: 25 µg/mL (≈ 112 µM) | MIC [14, 40]: 50 µg/mL (≈ 223 µM) | MIC [15, 41]: < 10 µg/mL | MIC [16, 42]: 25 µg/mL (≈ 112 µM) | MIC [16, 43]: 50 µg/mL (≈ 223 µM)

N#CSCCSc1nsnc1SCCSC#N [Example 5, Bis(thioethylthiocyanato)-1,2,5-thiadiazole]
MIC [1, 19]: > 500 µg/mL | MIC [1, 20]: > 500 µg/mL | MIC [2, 21]: > 500 µg/mL | MIC [2, 22]: > 500 µg/mL | MIC [3, 23]: > 500 µg/mL | MIC [3, 24]: > 500 µg/mL | MIC [4, 25]: < 10 µg/mL | MIC [5, 26]: > 500 µg/mL | MIC [5, 27]: > 500 µg/mL | MIC [6, 28]: > 500 µg/mL | MIC [7, 29]: < 10 µg/mL | MIC [8, 30]: < 10 µg/mL | MIC [9, 31]: > 500 µg/mL | MIC [9, 32]: > 500 µg/mL | MIC [10, 33]: > 500 µg/mL | MIC [10, 34]: > 500 µg/mL | MIC [11, 35]: 100 µg/mL (≈ 312 µM) | MIC [12, 36]: > 500 µg/mL | MIC [12, 37]: > 500 µg/mL | MIC [13, 38]: 250 µg/mL (≈ 780 µM) | MIC [14, 39]: > 500 µg/mL | MIC [14, 40]: > 500 µg/mL | MIC [15, 41]: < 10 µg/mL | MIC [16, 42]: > 500 µg/mL | MIC [16, 43]: > 500 µg/mL
